From patent US11897918B2, “Compositions and methods to increase production” (priority 2014, dated 2024)

Key:
[1] = system: H3N2 strain IVR-165; assay type: cell-based, influenza H3N2; details: concentrations as low as 0.05 or even 0.01 μM
[2] = system: influenza H3N2 strain IVR-165 (A/Victoria/361/2011); assay type: cell-based
[3] = system: MDCK cells; test: Cell viability, VI-CELL trypan blue exclusion; assay type: cell-based; details: monitored up to 60 hrs
Procedure: Cell viability assays were performed using MDCK cells treated with 1 uM sulphonamide or DMSO control. Cell viability was monitored over time up to 60 hrs using a VI-CELL machine (Beckman Coulter)(cell viability measured based on trypan blue exclusion). The sulphonamide analog used herein is not a marketed drug, therefore toxicity was conducted to identify cell viability over the course of incubation at the highest tested concentration of 10 μM and 60 hours of contact. […] At least 91% viability is detected in cells treated with sulphonamide.

[4] = system: H3N2 strain; test: Additional SAR studies, 10 ml viral cultures; assay type: cell-based, influenza H3N2; details: 0.05 uM
Procedure: Additional SAR studies were carried out to further identify candidate compounds to increase yields. 165 analogs tested at 0.05 uM in 10 ml viral cultures with a H3N2 strain. BYF589 enhanced yield over no-compound (DMSO) control by ˜2 fold. 14 of the 165 screened were as good as or better in enhancing HA yields than BYF589 at the concentration tested.

[5] = system: cellular cholesterol; test: Total cellular cholesterol (Amplex Red); assay type: cell-based; details: normalized to DMSO
Procedure: Possible effects of BYF589 as well as various enzyme inhibitors of the pathway on the cell viability and total cellular cholesterol levels were examined. Tested samples included DMSO, BYF589 (1 μM), MEV (100 μM), FTI (0.5 μM), ZA (1 μM) and GTI (0.5 μM).
Free cholesterol is oxidized by cholesterol oxidase to form a cholesterol ketone and H2O2, which then reacts with Amplex Red+HRP to produce the fluorescent product resorufin.

[6] = system: influenza in MDCK 33016PF cells; assay type: cell-based
[7] = system: IP10 and IFNB1; assay type: cell-based
[8] = system: virus-infected host cell culture; assay type: cell-based, influenza; details: versus control without compound
[9] = system: B/Massachusetts/2/2012 (low-expressing); test: ambr15 mini-bioreactor and shake flask comparison, B strain; assay type: cell-based, influenza B; details: CDM and DM134 media, shake flasks and 15 ml bioreactors
Procedure: The two lead compounds were further tested in the commercially available small-scale bioreactor system, ambr15™ (TAP Biosystems). The ambr15 system mimics the characteristics of classical bioreactors at microscale (10-15 ml), controlled by an automated workstation, which enables the rapid evaluation of multiple bioreactor cultures at microscale.
To test both lead compounds were tested side-by-side under controlled conditions, with two infection media formulations (DM134 and CDM) and two flu strains, A/Victoria/361/2011 (IVR-165) (high-expressing) and B/Massachusetts/2/2012 (low-expressing). The infection parameters used in the experiment were as follows: seeding density was 1.0×10^6 cells/ml or 2.5×10^6 cells/mL; pH was 7.1+/−0.02 (pH control by dual control with 0.05N NaOH and CO2 gas); DO was 50% (range 50-80%), controlled by O2 gas; agitation was 1000 rpm (local control); temperature was 34.0° C., locally monitored with bioreactor controller probe; vessel type was Spargeless, extended temperature vessels; and, aeration rate during run was 1 mL/min.
The quantification of HA was carried out by ELISA then was subsequently confirmed by HPLC. It was also shown that AFZ077 was able to boost HA yield in the DM134 medium with both low (1×10^6 per mL) and high (2.5×10^6 per mL) infection cell densities in this system. […] Overall, greater enhancement effect seen for low-expressing strains. […]

[10] = system: A/Victoria/361/2011 (IVR-165) (high-expressing); test: ambr15 mini-bioreactor and shake flask comparison, A strain; assay type: cell-based, influenza A H3N2; details: CDM and DM134 media, shake flasks and 15 ml bioreactors
[11] = system: B/Massachusetts/02/2012; test: Ambr 250 mL bioreactor, B strain; assay type: cell-based, influenza B
Procedure: FIG. 13 provides a graph showing HA yields in the B strain tested with BYF589 at concentrations as indicated.
FIG. 14 provides a graph showing HA yields in the B strain tested with AFZ077 at concentrations as indicated.
The results were confirmed using 3 different viruses (a high-, medium-, and poor-expressing strains). […] To confirm these findings in a larger-scale system, TD Ambr™ 250 mL bioreactors were employed. Both of the lead compounds (as well as DMSO alone as negative control, and, no compound/no DMSO as double-negative control) were tested with a high- and low-expressing strains to determine if the observed enhancement in the small-scale cultures can be reproduced in a larger-scale system. The following parameters were used: Spent DM134:Fresh PFM (1:3); Virus Strains were A/Victoria/361/2011 (IVR-165) and B/Massachusetts/02/2012; MOI was 10^−5 for A/Victoria IVR-165 and 10^−4 for B/Massachusetts; ICD: 2.0e6-3.0e6 cells/mL; N-1 Process: 1B (no Medium Exchange); and, Harvest Time was 65-72 hours post-infection. HA yields were measured by two methods: RP-HPLC and HA-ELISA. […] Note that the error bars represent one standard deviation from the mean, to illustrate variability of the HA-ELISA assay between assay repeats.

[12] = 0 and 60 hr, mass spec
[13] = system: MDCK 33016PF cells; details: 24 hours; BYF589 1 μM, MEV 100 μM, FTI 0.5 μM, ZA 1 μM, GTI 0.5 μM

O=C(O)C[C@H](O)C[C@H](O)/C=C/c1c(C2CC2)nc2ccccc2c1-c1ccc(F)cc1 [Compound G, (3R, 5S, 6E)-7-[2-cyclopropyl-4-(4-fluorophenyl)-quinolin-3-yl)-3,5-dihydroxyhept-6-enoic acid]
increase in HA yield [1]: 3 fold
HA yield before the decrease (earlier addition) [2]: about 20 μg/ml
HA yield, compound added 2 hours post infection [2]: about 5 μg/ml
impact on cell viability [3]: Neither sulphonamide nor pitavastatin had a negative impact on cell viability
yield enhancement over no-compound (DMSO) control [4]: ~2 fold
cellular cholesterol levels, compound alone [5]: lower cholesterol
HA yield enhancement in multiple strains and subtypes of influenza [6]: at least 2 fold
delay time of gene induction (measured at peak) ([7]; both genes, versus absence of compound): at least two hours
induction of IFNb and IP10 ([7]; virus-infected MDCK cells, preliminary qRT-PCR data): delayed/suppressed induction
increase in HA yield at 24 hours, compound added at T=2, 4 [8]: no significant enhancement in HA yield
increase in HA yield at 24 hours, compound added at T=6 [8]: no significant enhancement in HA yield
increase in HA yield at 24 hours, compound added at time of infection (T=0) [8]: approximately 4 fold
HA yield enhancement, low-expressing B strain [9]: boosts HA yield
HA yield enhancement, high-expressing A strain [10]: but not a high-expressing H3N2 strain
effectiveness in increasing protein production yield by concentration ([11]; 5 nM vs 50 nM vs 500 nM): more effective in increasing protein production yield at 5 nM than at 50 nM, which in turn was more effective than at 500 nM
increase in yield over no DMSO control ([11]; 0.005 μM, HA-HPLC): about 37%
loss of compound in media or media+MDCK cells [12]: No loss of compounds was observed
effect on cell viability [13]: no negative effect on cell viability
